Measurements from ChEMBL document CHEMBL4385666, “Exploring hydroxamic acid inhibitors of HDAC1 and HDAC2 using small molecule tools and molecular or homology modelling” (Bioorg Med Chem Lett, 2019).

Assays:
Histone deacetylase 1 = Histone deacetylase 1 (Homo sapiens, UniProt Q13547); assay: Inhibition of human recombinant HDAC1 pre-incubated for 30 mins before substrate addition and measured after 30 mins by fluorescence based assay
Histone deacetylase 2 = Histone deacetylase 2 (Homo sapiens, UniProt Q92769); assay: Inhibition of human recombinant HDAC2 pre-incubated for 30 mins before substrate addition and measured after 30 mins by fluorescence based assay
Chain of Histone deacetylase 2 (Q92769 whole entry): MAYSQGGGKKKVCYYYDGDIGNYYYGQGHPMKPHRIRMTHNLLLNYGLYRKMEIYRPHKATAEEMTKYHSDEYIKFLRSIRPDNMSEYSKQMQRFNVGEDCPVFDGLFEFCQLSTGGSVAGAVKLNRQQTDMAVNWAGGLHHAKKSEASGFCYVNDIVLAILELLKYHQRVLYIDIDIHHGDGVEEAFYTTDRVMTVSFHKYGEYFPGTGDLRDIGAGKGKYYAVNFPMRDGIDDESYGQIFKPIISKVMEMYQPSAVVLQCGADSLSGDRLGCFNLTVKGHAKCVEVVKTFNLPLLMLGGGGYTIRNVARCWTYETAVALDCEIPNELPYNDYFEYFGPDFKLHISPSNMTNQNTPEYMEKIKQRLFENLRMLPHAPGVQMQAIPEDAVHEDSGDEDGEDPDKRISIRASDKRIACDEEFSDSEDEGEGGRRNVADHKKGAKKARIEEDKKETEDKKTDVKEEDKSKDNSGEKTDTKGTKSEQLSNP

[1] = biological target: Class 1 histone deacetylase (Homo sapiens, UniProt Q13547+O15379+Q92769+Q9BY41); assay: Inhibition Class 1 histone deacetylase in human HeLa nuclear extracts using Fluor-de- Lys-green substrate by fluorescence assay; assay type: cell-free

Chain of Histone deacetylase 1 (Q13547 whole entry): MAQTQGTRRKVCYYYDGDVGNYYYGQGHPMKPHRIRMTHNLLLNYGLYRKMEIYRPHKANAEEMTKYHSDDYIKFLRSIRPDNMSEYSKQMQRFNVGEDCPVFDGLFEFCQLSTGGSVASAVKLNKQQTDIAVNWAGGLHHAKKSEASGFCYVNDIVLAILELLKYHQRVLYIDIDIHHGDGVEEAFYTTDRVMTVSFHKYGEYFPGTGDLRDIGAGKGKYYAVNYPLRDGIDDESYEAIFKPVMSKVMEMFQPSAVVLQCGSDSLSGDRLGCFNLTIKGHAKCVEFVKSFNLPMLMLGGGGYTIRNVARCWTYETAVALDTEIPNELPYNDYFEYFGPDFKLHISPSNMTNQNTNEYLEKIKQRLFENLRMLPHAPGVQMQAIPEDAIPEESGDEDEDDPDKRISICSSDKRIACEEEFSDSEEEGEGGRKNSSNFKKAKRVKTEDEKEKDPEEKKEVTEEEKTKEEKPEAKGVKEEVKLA

Structure (SMILES): COc1ccccc1CNCc1ccc(/C=C/C(=O)NO)cc1
- IC50 (Histone deacetylase 1): 610 nM
- IC50 (Histone deacetylase 2): 1490 nM
- IC50 [1]: 278 nM

Structure (SMILES): COc1ccc(OC)c(CNCc2ccc(/C=C/C(=O)NO)cc2)c1
- IC50 (Histone deacetylase 1): 620 nM
- IC50 (Histone deacetylase 2): 1750 nM
- IC50 [1]: 292 nM

Structure (SMILES): COc1cccc(OC)c1CNCc1ccc(/C=C/C(=O)NO)cc1
- IC50 (Histone deacetylase 1): 636 nM
- IC50 (Histone deacetylase 2): 1080 nM
- IC50 [1]: 235 nM

Structure (SMILES): COc1ccc(CNCc2ccc(/C=C/C(=O)NO)cc2)cc1OC
- IC50 (Histone deacetylase 1): 1260 nM
- IC50 (Histone deacetylase 2): 1890 nM
- IC50 [1]: 371 nM

Structure (SMILES): COc1ccc(CNCc2ccc(/C=C/C(=O)NO)cc2)cc1
- IC50 (Histone deacetylase 1): 381 nM
- IC50 (Histone deacetylase 2): 926 nM
- IC50 [1]: 195 nM

Structure (SMILES): COc1cccc(CNCc2ccc(/C=C/C(=O)NO)cc2)c1OC
- IC50 (Histone deacetylase 1): 602 nM
- IC50 (Histone deacetylase 2): 950 nM
- IC50 [1]: 296 nM

Structure (SMILES): COc1cc(CNCc2ccc(/C=C/C(=O)NO)cc2)cc(OC)c1
- IC50 (Histone deacetylase 1): 837 nM
- IC50 (Histone deacetylase 2): 1270 nM
- IC50 [1]: 415 nM

Structure (SMILES): COc1ccc(CNCc2ccc(/C=C/C(=O)NO)cc2)c(OC)c1
- IC50 (Histone deacetylase 1): 449 nM
- IC50 (Histone deacetylase 2): 994 nM
- IC50 [1]: 258 nM

Structure (SMILES): COc1cccc(CNCc2ccc(/C=C/C(=O)NO)cc2)c1
- IC50 (Histone deacetylase 1): 463 nM
- IC50 (Histone deacetylase 2): 819 nM
- IC50 [1]: 420 nM

Structure (SMILES): O=C(/C=C/c1ccc(CNCc2ccccc2)cc1)NO
- IC50 [1]: 370 nM
